pIC50: −log10 of the molar value.
Target: ROCK2 (Homo sapiens, UniProt O75116)
Test: ROCK assay: phosphorylation of FITC peptide substrate, LABCHIP 3000 mobility shift
Format: biochemical
Details: 5 μM ATP, 1.5 μM peptide substrate; read-out: ROCK2 Activity (ROCK IC50 range)
Outline: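 Rho kinase variant phosphorylates 1.5 μM FITC-AHA-AKRRRLSSLRA-OH with 5 μM ATP in 20 mM HEPES pH 7.5, 20 mM MgCl2, 0.015% Brij-35, 4 mM DTT, DMSO <2%. EDTA stops the reaction, and phospho and non-phospho peptides are resolved by LabChip 3000 mobility shift. IC50 from dose-response curve fit.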

Chain of ROCK2 (O75116 whole entry, species assumed): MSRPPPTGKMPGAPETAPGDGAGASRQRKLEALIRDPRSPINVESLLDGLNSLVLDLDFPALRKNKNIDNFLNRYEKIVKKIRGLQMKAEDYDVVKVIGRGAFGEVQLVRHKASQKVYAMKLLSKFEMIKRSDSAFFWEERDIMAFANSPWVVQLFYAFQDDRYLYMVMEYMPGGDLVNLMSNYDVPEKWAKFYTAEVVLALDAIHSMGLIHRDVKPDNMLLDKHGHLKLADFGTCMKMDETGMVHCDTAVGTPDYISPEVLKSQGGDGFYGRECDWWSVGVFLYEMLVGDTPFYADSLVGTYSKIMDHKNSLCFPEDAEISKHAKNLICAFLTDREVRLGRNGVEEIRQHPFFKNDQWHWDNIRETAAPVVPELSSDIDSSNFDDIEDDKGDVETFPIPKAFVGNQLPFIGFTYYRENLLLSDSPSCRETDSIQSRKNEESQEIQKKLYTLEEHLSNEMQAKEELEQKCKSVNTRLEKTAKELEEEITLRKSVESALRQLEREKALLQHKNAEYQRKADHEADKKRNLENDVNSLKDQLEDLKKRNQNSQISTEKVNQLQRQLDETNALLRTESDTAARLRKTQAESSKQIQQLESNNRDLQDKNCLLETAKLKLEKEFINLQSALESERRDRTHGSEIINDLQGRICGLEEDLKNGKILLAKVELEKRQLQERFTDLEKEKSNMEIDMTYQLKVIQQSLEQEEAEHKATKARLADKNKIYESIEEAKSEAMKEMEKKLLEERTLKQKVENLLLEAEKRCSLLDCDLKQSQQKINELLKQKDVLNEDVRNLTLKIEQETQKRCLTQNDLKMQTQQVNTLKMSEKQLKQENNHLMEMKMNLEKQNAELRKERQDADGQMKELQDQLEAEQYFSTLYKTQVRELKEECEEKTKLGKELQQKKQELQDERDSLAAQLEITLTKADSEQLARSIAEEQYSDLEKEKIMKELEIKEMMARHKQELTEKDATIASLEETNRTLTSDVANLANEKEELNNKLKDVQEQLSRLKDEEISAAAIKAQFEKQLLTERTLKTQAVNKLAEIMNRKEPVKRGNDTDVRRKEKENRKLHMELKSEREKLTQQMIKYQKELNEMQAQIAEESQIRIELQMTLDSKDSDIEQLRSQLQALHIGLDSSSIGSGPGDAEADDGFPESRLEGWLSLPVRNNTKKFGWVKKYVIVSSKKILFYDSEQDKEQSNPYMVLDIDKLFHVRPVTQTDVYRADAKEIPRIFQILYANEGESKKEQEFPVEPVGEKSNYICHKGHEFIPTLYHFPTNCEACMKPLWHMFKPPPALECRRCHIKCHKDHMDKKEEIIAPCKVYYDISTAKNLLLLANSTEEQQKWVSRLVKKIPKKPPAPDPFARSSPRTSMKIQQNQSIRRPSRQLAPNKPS

Compound	pIC50
O=C(Cc1cccc2ccccc12)NC1CC2(C1)CC(c1n[nH]c(=O)c3ccccc13)C2 (stereo not shown) [Example 3, 2-(naphthalen-1-yl)-N-[6-(4-oxo-3,4-dihydrophthalazin-1-yl)spiro[3.3]heptan-2-yl]acetamide]	5.68 to 7.00
CN(C)c1ccc(C(=O)NC2CC3(C2)CC(c2n[nH]c(=O)c4ccccc24)C3)cc1 (stereo not shown) [Example 2, 4-(dimethylamino)-N-[6-(4-oxo-3,4-dihydrophthalazin-1-yl)spiro[3.3]heptan-2-yl]benzamide]	5.68 to 7.00
O=C1c2ccccc2CN1C1CC2(CC(c3n[nH]c(=O)c4ccccc34)C2)C1 [Example 457, 4-((aR)-6-(1-oxoisoindolin-2-yl)spiro[3.3]heptan-2-yl)phthalazin-1(2H)-one]	7.00 to 7.82
Cc1ccc(-c2ncc3c(n2)CN(C(=O)NC2CC4(C2)CC(c2n[nH]c(=O)c5ccccc25)C4)C3)cc1 [Example 262, N-((aR)-6-(4-oxo-3,4-dihydrophthalazin-1-yl)spiro[3.3]heptan-2-yl)-2-(p-tolyl)-5H-pyrrolo[3,4-d]pyrimidine-6(7H)-carboxamide]	5.68 to 7.00
CS(=O)(=O)N1CCc2c(C(=O)N[C@H]3CC4(C3)C[C@H](c3n[nH]c(=O)c5ccccc53)C4)csc2C1 (stereo partly drawn) [Example 276, 6-(methylsulfonyl)-N-((aR)-6-(4-oxo-3,4-dihydrophthalazin-1-yl)spiro[3.3]heptan-2-yl)-4,5,6,7-tetrahydrothieno[2,3-c]pyridine-3-carboxamide]	7.00 to 7.82
Cc1nc(N2CCC(C#N)C2)sc1C(=O)NC1CC2(C1)CC(c1n[nH]c(=O)c3ccccc13)C2 [Example 38, 2-[(3S)-3-cyanopyrrolidin-1-yl]-4-methyl-N-[(aR)-6-(4-oxo-3,4-dihydrophthalazin-1-yl)spiro[3.3]heptan-2-yl]-1,3-thiazole-5-carboxamide]	7.82 to 8.29
[H][C@]1(c2n[nH]c(=O)c3ccccc32)C[C@]2(C[C@@H](NC(=O)c3ccc4c(c3)ncn4C(C)C)C2)C1 (stereo partly drawn) [Example 307, 1-isopropyl-N-((aR)-6-(4-oxo-3,4-dihydrophthalazin-1-yl)spiro[3.3]heptan-2-yl)-1H-benzo[d] imidazole-5-carboxamide]	7.82 to 8.29
[H][C@]1(c2n[nH]c(=O)c3ccccc32)C[C@]2(C[C@@H](NC(=O)c3ccc4cnn(C)c4c3)C2)C1 (stereo partly drawn) [Example 366, 1-methyl-N-((aR)-6-(4-oxo-3,4-dihydrophthalazin-1-yl)spiro[3.3]heptan-2-yl)-1H-indazole-6-carboxamide]	7.82 to 8.29
O=C(NC1CC2(C1)CC(c1n[nH]c(=O)c3ccccc13)C2)c1cnn2ccncc12 [Example 467, N-((aR)-6-(4-oxo-3,4-dihydrophthalazin-1-yl)spiro[3.3]heptan-2-yl)pyrazolo[1,5-a] pyrazine-3-carboxamide]	7.00 to 7.82
[H][C@]1(c2n[nH]c(=O)c3ccccc32)C[C@]2(C[C@@H](NC(=O)c3cn(C)c4ccccc34)C2)C1 (stereo partly drawn) [Example 364, 1-methyl-N-((aR)-6-(4-oxo-3,4-dihydrophthalazin-1-yl)spiro[3.3]heptan-2-yl)-1H-indole-3-carboxamide]	7.82 to 8.29
[H][C@]1(c2n[nH]c(=O)c3ccccc32)C[C@]2(C[C@@H](NC(=O)c3ccc(-c4cc[nH]n4)cc3)C2)C1 (stereo partly drawn) [Example 357, N-((aR)-6-(4-oxo-3,4-dihydrophthalazin-1-yl)spiro[3.3]heptan-2-yl)-4-(1H-pyrazol-3-yl)benzamide]	7.00 to 7.82
Cc1sc(N2CCC(C#N)C2)nc1C(=O)NC1CC2(C1)CC(c1n[nH]c(=O)c3ccccc13)C2 [Example 55, 2-((S)-3-cyanopyrrolidin-1-yl)-5-methyl-N-((aR)-6-(4-oxo-3,4-dihydrophthalazin-1-yl)spiro[3.3]heptan-2-yl)thiazole-4-carboxamide]	7.82 to 8.29

Further lines, results first:

pIC50	Compound
8.70 to 9.70	Cc1c(C(=O)NC2CC3(C2)CC(c2n[nH]c(=O)c4ccccc24)C3)cnn1-c1ccccc1 [Example 20, 5-methyl-N-[(aR)-6-(4-oxo-3,4-dihydrophthalazin-1-yl)spiro[3.3]heptan-2-yl]-1-phenyl-1H-pyrazole-4-carboxamide]
8.30 to 8.70	O=C(NC1CC2(C1)CC(c1n[nH]c(=O)c3ccccc13)C2)N1CCc2cc(-c3cnn(CC4CC4)c3)ccc21 [Example 241, 5-(1-(cyclopropylmethyl)-1H-pyrazol-4-yl)-N-((aR)-6-(4-oxo-3,4-dihydrophthalazin-1-yl)spiro[3.3]heptan-2-yl)indoline-1-carboxamide]
8.30 to 8.70	Cn1ccc(-c2ccc3c(C(=O)NC4CC5(C4)CC(c4n[nH]c(=O)c6ccccc46)C5)nn(CC(C)(C)O)c3c2)n1 (stereo not shown) [Example 145, 1-(2-hydroxy-2-methylpropyl)-6-(1-methyl-1H-pyrazol-3-yl)-N-((αR)-6-(4-oxo-3,4-dihydrophthalazin-1-yl)spiro[3.3]heptan-2-yl)-1H-indazole-3-carboxamide]
8.70 to 9.70	O=C(NC1CC2(C1)CC(c1n[nH]c(=O)c3ccccc13)C2)c1cnn2cc(OC3CCOC3)ccc12 [Example 105, N-((aR)-6-(4-oxo-3,4-dihydrophthalazin-1-yl)spiro[3.3]heptan-2-yl)-6-((tetrahydrofuran-3-yl)oxy)pyrazolo[1,5-a]pyridine-3-carboxamide]
8.70 to 9.70	O=C(NC1CC2(C1)CC(c1n[nH]c(=O)c3ccccc13)C2)c1cnn2cc(OCCN3CCC(F)C3)ccc12 [Example 189, 6-(2-((R)-3-fluoropyrrolidin-1-yl)ethoxy)-N-((aR)-6-(4-oxo-3,4-dihydrophthalazin-1-yl)spiro[3.3]heptan-2-yl)pyrazolo[1,5-a]pyridine-3-carboxamide]
8.30 to 8.70	[H][C@]1(c2n[nH]c(=O)c3ccccc32)C[C@]2(C[C@@H](NC(=O)c3cc4cccc(Cl)c4[nH]3)C2)C1 (stereo partly drawn) [Example 328, 7-chloro-N-((aR)-6-(4-oxo-3,4-dihydrophthalazin-1-yl)spiro[3.3]heptan-2-yl)-1H-indole-2-carboxamide]
8.30 to 8.70	[H][C@]1(c2n[nH]c(=O)c3ccccc32)C[C@]2(C[C@@H](NC(=O)c3cnc4c(C(F)(F)F)cccn34)C2)C1 (stereo partly drawn) [Example 381, N-((aR)-6-(4-oxo-3,4-dihydrophthalazin-1-yl)spiro[3.3]heptan-2-yl)-8-(trifluoro-methyl)imidazo[1,2-a]pyridine-3-carboxamide]
8.30 to 8.70	[H][C@]1(c2n[nH]c(=O)c3ccccc32)C[C@]2(C[C@@H](NC(=O)c3cnc4cc(N(C)CCO)ccn34)C2)C1 (stereo partly drawn) [Example 396, 7-((2-hydroxy-ethyl)(methyl)amino)-N-((aR)-6-(4-oxo-3,4-dihydrophthalazin-1-yl)spiro[3.3]heptan-2-yl)imidazo[1,2-a]pyridine-3-carboxamide]
8.30 to 8.70	COc1cccc(-n2cc(C(=O)NC3CC4(C3)CC(c3n[nH]c(=O)c5ccccc35)C4)cn2)c1 [Example 108, 1-(3-methoxyphenyl)-N-((aR)-6-(4-oxo-3,4-dihydrophthalazin-1-yl)spiro[3.3]heptan-2-yl)-1H-pyrazole-4-carboxamide]
8.70 to 9.70	O=C(NC1CC2(C1)CC(c1n[nH]c(=O)c3ccccc13)C2)c1cnn2cc(N3CCC(F)C3)ccc12 [Example 88, 6-((R)-3-fluoropyrrolidin-1-yl)-N-((aR)-6-(4-oxo-3,4-dihydrophthalazin-1-yl)spiro[3.3]heptan-2-yl)pyrazolo[1,5-a]pyridine-3-carboxamide]

Source: patent publication US9902702B2, “Spirocycloheptanes as inhibitors of rock” (BRISTOL-MYERS SQUIBB COMPANY, priority 2014, dated 2018)
